Results as given in patent US12691076B2, “Methods and compositions related to extracellular vesicles” (priority 2020, dated 2026).
Like-named read-outs stand apart in the source and are kept apart here.

Experiment: Plasma and tissue concentrations of efavirenz after tail vein injection
Assay type: in vivo, CD-1 mice
Conditions: mice, 5 mg/kg tail vein; for concentration at […]: 0.25 h
Experimental: The efavirenz-loaded apical AVT-EVs were subsequently injected via tail vein into CD-1 mice at a dose of 5 mg/kg and compared to a control injection of 5 mg/kg of conventional efavirenz (dissolved with DMSO). Plasma and tissue concentrations were determined by LC-MS/MS.

[1] = CD-1, mouse, liver, intravenous, LLOQ 35 ng/g, read-out: Efavirenz concentration, Liver
[2] = CD-1, mouse, lung, intravenous, LLOQ 35 ng/g, read-out: Efavirenz concentration, Lungs
[3] = CD-1, mouse, plasma, intravenous, read-out: Efavirenz concentration, Plasma

Compound: O=C1Nc2ccc(Cl)cc2[C@@](C#CC2CC2)(C(F)(F)F)O1 [Efavirenz in DMSO, efavirenz]
- concentration at 0.083 h [1]: 7590 ng/g
- concentration at […] [1]: 5420 ng/g
- concentration at 0.5 h [1]: 5230 ng/g
- concentration at 1 h [1]: 176 ng/g
- concentration at 2 h [1]: 135 ng/g
- concentration at 3 h (CD-1, mouse, liver, intravenous, 3 h, LLOQ 35 ng/g, read-out: Efavirenz concentration, Liver): 136 ng/g
- concentration at 4 h (CD-1, mouse, liver, intravenous, 4 h, LLOQ 35 ng/g, read-out: Efavirenz concentration, Liver): 137 ng/g
- concentration at 6 h (CD-1, mouse, liver, intravenous, 6 h, LLOQ 35 ng/g, read-out: Efavirenz concentration, Liver): 115 ng/g
- concentration at 0.083 h [2]: 2140 ng/g
- concentration at […] [2]: 802 ng/g
- concentration at 0.5 h [2]: 830 ng/g
- concentration at 1 h [2]: 273 ng/g
- concentration at 0.083 h [3]: 4100 ng/mL
- concentration at […] [3]: 2820 ng/mL
- concentration at 0.5 h [3]: 1620 ng/mL
- concentration at 1 h [3]: 1560 ng/mL
- concentration at 2 h [3]: 724 ng/mL
- concentration at 3 h (CD-1, mouse, plasma, intravenous, 3 h, read-out: Efavirenz concentration, Plasma): 396 ng/mL
- concentration at 4 h (CD-1, mouse, plasma, intravenous, 4 h, read-out: Efavirenz concentration, Plasma): 103 ng/mL
- concentration at 6 h (CD-1, mouse, plasma, intravenous, 6 h, read-out: Efavirenz concentration, Plasma): 64.4 ng/mL
- concentration at 8 h (CD-1, mouse, plasma, intravenous, 8 h): 33.1 ng/mL
- AUC(0-t) (CD-1, mouse, plasma, intravenous, read-out: area under the plasma-time concentration curve (AUC0-8h) of efavirenz): 4520 ng·h/mL
- AUC0-8h for efavirenz in the lungs: 0.95 µg·h/g
- lung:liver tissue AUC0-8h ratio: 0.19
- overall exposure of the liver relative to the lungs: approximately 5 times
- Efavirenz concentration, Lungs (3 h, LLOQ 35 ng/g): <LLOQ
- Efavirenz concentration, Lungs (4 h, LLOQ 35 ng/g): <LLOQ
- Efavirenz concentration, Lungs (6 h, LLOQ 35 ng/g): <LLOQ
- Efavirenz concentration, Liver (8 h, LLOQ 35 ng/g): <LLOQ
- Efavirenz concentration, Lungs (8 h, LLOQ 35 ng/g): <LLOQ
